US12655104B2, “Anticancer compounds selective for ER-positive cancers” (THE BOARD OF TRUSTEES OF THE UNIVERSITY OF ILLINOIS, priority 2020, dated 2026)
Like-named read-outs stand apart in the source and are kept apart here. Values belong to the molecule of their own block, whether it stands above or below them.

What was measured:
MCF-7 cells = assay: Alamar blue fluorescence viability (IC50), MCF-7; type: cell-based
Protocol: (§1) Cancer Cell Lines: Culturing Conditions and Validation. All cell lines were cultured at 37° C. with 5% CO2. All ERα-positive cell lines were grown in media lacking phenol red. MCF-7 were grown in EMEM with 10% FBS and 1% penicillin-streptomycin (P/S). T47D were cultured in MEM with 10% FBS and 1% P/S. TYS and TDG cells were grown in MEM supplemented with 10% CD-FBS and 1% P/S. HCT-116 and MDA-MB-231 cells were cultured in RPMI-1640 supplemented with 10% FBS and 1% P/S. MDA-MB-436 cells were cultured in DMEM supplemented with 10% FBS and 1% P/S. HT-29 were cultured in McCoy's media supplemented with 10% FBS and 1% P/S. All cell lines were used directly from ATCC stocks and/or have been further authenticated using PowerPlex16HS Assay (Promega) as described previously.^54 In short, >1 million cells were harvested and lysed using the cell lysis buffer (50 mM Tris, 50 mM EDTA, 25 mM sucrose, 100 mM NaCl, 1% SDS, pH 8). DNA extraction and short tandem repeats (STRs) profiling for each cell line were carried out at the University of Arizona Genetics Core (UAGC). Autosomal STR profiles were compared to reference databases such as ATCC, DSMZ, and JCRB.
(§2) Alamar Blue Fluorescence for Anticancer Activity (IC50). 2,000-15,000 cells per well were seeded a 96-well plate. Cells were allowed to adhere before DMSO stock solutions of test compounds were added to each well with a final concentration of DMSO in each well=1%; final volume: 100 μL. At the end of the desired incubation time (e.g., 24 or 72 hours), media in each well was aspirated and new fresh media (no compound, 100 μL) was added. Alamar blue solution (4 mg resazurin per 40 mL PBS) was then added (10 μL). After 2-6 hours incubation, each well's fluorescence (λexcit.=555 nm, λemission.=585 nm) was measured using a SpectraMax M3 plate reader (Molecular Devices). Percent dead was determined by comparison to a 100% dead control: 100 μM raptinal treated cells. Dose dependent curves and IC50 were calculated using Origin Pro V10.

MDA-MB-231 = assay: Alamar blue fluorescence viability (IC50), MDA-MB-231; type: cell-based; conditions: for Fold Change: Average Fold Change between 24/72 hr IC50 values for MCF-7 and MDA-MB-231; for IC50: MDA-MB-231, ERα negative
Protocol: as §1, §2

HCT-116 = assay: Alamar blue fluorescence viability (IC50), HCT-116; type: cell-based; conditions: for Fold Change: Average Fold Change between 24/72 hr IC50 values for MCF-7 and HCT-116; for IC50: HCT-116, ERα negative
Protocol: as §1, §2

HT-29 = assay: Alamar blue fluorescence viability (IC50), HT-29; type: cell-based; conditions: for Fold Change: Average Fold Change between 24/72 hr IC50 values for MCF-7 and HT-29; for IC50: HT-29, ERα negative
Protocol: as §1, §2

ERα− cancer cell lines = assay: Selectivity of cell killing, ERα+ versus ERα− cancer cell lines; type: cell-based; conditions: MDA-MB-231, HCT-116, HT-29; 24- and 72-hour incubations
Protocol: as §1, §2

[1] = Simulated gastric fluid (SGF) stability assay; type: in vitro ADME; conditions: 100 μM in SGF with pepsin
Protocol: Simulated Gastric Fluid (SGF) Stability Assay. SGF was prepared fresh by adding 3.2 g pepsin (Sigma Aldrich P7000) to 1000 mL of SGF (Fischer Scientific 7108-16) and the pH adjusted to 1.2 using a pH meter. This SGFwith pepsin solution was then warmed to 37° C. 990 μL of warmed SGFwith pepsin was then aliquoted into multiple Eppendorf tubes, followed by 10 μL of 10 mM DMSO stock solutions of test compounds. Erythromycin (MedChemExpress HY-B0220) is a positive control for this stability assay. Samples were incubated at 37° C. for the entire experiment with vortexing every 15 minutes. At each desired time point (0, 15, 30, 60, 120 minutes), a 100 μL aliquot is removed and quenched into 50 μL of acetonitrile. Samples are stored at 4° C. until all time points are complete. Samples were then vortexed and then clarified at 3,000 RPM for 10 minutes in a 4° C. centrifuge. Supernatants were collected and compound concentrations determined by LC-MS/MS (UIUC Metabolomics Center, Urbana, IL.). Determined compound concentrations were used to calculate percent remaining compared to t=0 samples.

[2] = MCF-7, ERα positive, 24 hr, read-out: IC50 24 hr
[3] = MCF-7, ERα positive, 72 hr, read-out: IC50 72 hr
[4] = Homo sapiens, MCF7, MCF-7 cells, 24 hours, Alamar blue, mean ± s.e.m., read-out: IC50

Structure (SMILES): O=C1Nc2c(C(F)(F)F)cccc2C1(c1ccc(O)cc1)N1CCCC(F)(F)C1 (centres unmarked)
- IC50 (MCF-7 cells; [2]): 39 ± 10 nM
- IC50 (MCF-7 cells; [3]): 33 ± 1 nM
- Fold Change (MDA-MB-231): 667
- IC50 (MDA-MB-231; 24 hr, read-out: IC50 24 hr): 49000 ± 4000 nM
- IC50 (MDA-MB-231; 72 hr, read-out: IC50 72 hr): 22000 ± 1000 nM
- Fold Change (HCT-116): 636
- IC50 (HCT-116; 24 hr, read-out: IC50 24 hr): 38000 ± 4000 nM
- IC50 (HCT-116; 72 hr, read-out: IC50 72 hr): 21000 ± 4000 nM
- Fold Change (HT-29): 758
- IC50 (HT-29; 24 hr, read-out: IC50 24 hr): 29000 ± 1000 nM
- IC50 (HT-29; 72 hr, read-out: IC50 72 hr): 25000 ± 3000 nM

Structure (SMILES): O=C1Nc2c(C(F)(F)F)cccc2C1(c1ccc(O)cc1)N1CCC(F)(F)C1 (centres unmarked)
- IC50 (MCF-7 cells; [2]): 17 ± 1 nM
- IC50 (MCF-7 cells; [3]): 22 ± 1 nM
- Fold Change (MDA-MB-231): 1455
- IC50 (MDA-MB-231; 24 hr, read-out: IC50 24 hr): 51000 ± 5000 nM
- IC50 (MDA-MB-231; 72 hr, read-out: IC50 72 hr): 32000 ± 3000 nM
- Fold Change (HCT-116): 909
- IC50 (HCT-116; 24 hr, read-out: IC50 24 hr): 45000 ± 5000 nM
- IC50 (HCT-116; 72 hr, read-out: IC50 72 hr): 20000 ± 6000 nM
- Fold Change (HT-29): 1364
- IC50 (HT-29; 24 hr, read-out: IC50 24 hr): 35000 ± 6000 nM
- IC50 (HT-29; 72 hr, read-out: IC50 72 hr): 30000 ± 5000 nM

Structure (SMILES): O=C1Nc2c(C(F)(F)F)cccc2C1(c1ccc(O)cc1)N1CCC(F)(F)CC1 (racemic) [Compound 2, 3-(4,4-difluoropiperidin-1-yl)-3-(4-hydroxyphenyl)-7-(trifluoromethyl)indolin-2-one]
- IC50 (MCF-7 cells; [4]): 35 nM

Structure (SMILES): O=C1Nc2c(C(F)(F)F)cccc2[C@@]1(c1ccc(O)cc1)N1CCC(F)CC1 [(R)-22, (R)-3-(4-fluoropiperidin-1-yl)-3-(4-hydroxyphenyl)-7-(trifluoromethyl)indolin-2-one]
- anticancer activity against MCF-7 cells (in words) (MCF-7 cells; MCF-7 cells): lack of potent activity

Structure (SMILES): O=C1Nc2c(C(F)(F)F)cccc2[C@]1(c1ccc(O)cc1)N1CC(F)(F)C(F)(F)C1 [(S)-26, (S)-3-(4-hydroxyphenyl)-3-(3,3,4,4-tetrafluoropyrrolidin-1-yl)-7-(trifluoromethyl) indolin-2-one]
- anticancer activity against MCF-7 cells (in words) (MCF-7 cells; MCF-7 cells): inactive

Structure (SMILES): O=C1Nc2c(C(F)(F)F)cccc2C1(c1ccc(OC(F)(F)F)cc1)c1cc(F)c(O)c(F)c1 (centres unmarked) [Compound 6, 3-(3,5-difluoro-4-hydroxyphenyl)-3-(4-(trifluoromethoxy)phenyl)-7-(trifluoromethyl)indolin-2-one]
- IC50 (MCF-7 cells; [4]): > 1000 nM
- anticancer activity against MCF-7 cells (in words) (MCF-7 cells; MCF-7 cells): loss of activity

Structure (SMILES): O=C1Nc2c(C(F)(F)F)cccc2C1(c1ccc(OC(F)(F)F)cc1)c1ccc(O)cc1F (centres unmarked) [Compound 7, 3-(2-fluoro-4-hydroxyphenyl)-3-(4-(trifluoromethoxy)phenyl)-7-(trifluoromethyl)indolin-2-one]
- IC50 (MCF-7 cells; [4]): 177 nM

Structure (SMILES): O=C1Nc2c(C(F)(F)F)cccc2C1(c1ccc(OC(F)(F)F)cc1)c1ccc(OC(F)(F)F)cc1 [Compound 9, 3,3-bis(4-(trifluoromethoxy)phenyl)-7-(trifluoromethyl)indolin-2-one]
- IC50 (MCF-7 cells; [4]): > 1000 nM
- anticancer activity against MCF-7 cells (in words) (MCF-7 cells; MCF-7 cells): lack of activity

Structure (SMILES): Cc1cc(C2(c3ccc(OC(F)(F)F)cc3)C(=O)Nc3c(C(F)(F)F)cccc32)cc(C)c1O (centres unmarked) [Compound 12, 3-(4-hydroxy-3,5-dimethylphenyl)-3-(4-(trifluoromethoxy)phenyl)-7-(trifluoromethyl)indolin-2-one]
- IC50 (MCF-7 cells; [4]): > 1000 nM

Structure (SMILES): CC(C)c1cc(C2(c3ccc(OC(F)(F)F)cc3)C(=O)Nc3c(C(F)(F)F)cccc32)cc(C(C)C)c1O (centres unmarked) [Compound 13, 3-(4-hydroxy-3,5-diisopropylphenyl)-3-(4-(trifluoromethoxy)phenyl)-7-(trifluoromethyl)indolin-2-one]
- IC50 (MCF-7 cells; [4]): > 1000 nM

Structure (SMILES): O=C1Nc2c(C(F)(F)F)cccc2C1(c1ccc(O)cc1)N1CCC(O)CC1 (centres unmarked) [Compound 20, 3-(4-hydroxyphenyl)-3-(4-hydroxypiperidin-1-yl)-7-(trifluoromethyl)indolin-2-one]
- IC50 (MCF-7 cells; [4]): > 1000 nM

Structure (SMILES): O=C1Nc2c(C(F)(F)F)cccc2C1(c1ccc(O)cc1)N1CCC(OC(F)(F)F)CC1 (centres unmarked) [Compound 21, 3-(4-hydroxyphenyl)-3-(4-(trifluoromethoxy)piperidin-1-yl)-7-(trifluoromethyl)indolin-2-one]
- IC50 (MCF-7 cells; [4]): 135 nM

Structure (SMILES): O=C1Nc2c(C(F)(F)F)cccc2C1(c1ccc(O)cc1)N1CC(F)(F)C(F)(F)C1 (centres unmarked) [drawing 36]
- IC50 (MCF-7 cells; [2]): 5 ± 1 nM
- IC50 (MCF-7 cells; [3]): 4 ± 1 nM
- Fold Change (MDA-MB-231): 3500
- IC50 (MDA-MB-231; 24 hr, read-out: IC50 24 hr): 22000 ± 2000 nM
- IC50 (MDA-MB-231; 72 hr, read-out: IC50 72 hr): 14000 ± 1000 nM
- Fold Change (HCT-116): 3750
- IC50 (HCT-116; 24 hr, read-out: IC50 24 hr): 24000 ± 2000 nM
- IC50 (HCT-116; 72 hr, read-out: IC50 72 hr): 15000 ± 3000 nM
- Fold Change (HT-29): 3750
- IC50 (HT-29; 24 hr, read-out: IC50 24 hr): 25000 ± 1000 nM
- IC50 (HT-29; 72 hr, read-out: IC50 72 hr): 15000 ± 2000 nM

Further lines, with some results ahead:

- IC50 (MCF-7 cells; [3]): 117 ± 3 nM
Structure (SMILES): O=C1Nc2c(C(F)(F)F)cccc2C1(c1ccc(O)cc1)N1CC(F)(F)C1 (centres unmarked)

- % Remaining after 120 min (SD) ([1]; 120 min): 0±0%
- half-life at 100 μM ([1]; simulated gastric fluid with pepsin, pH 1.2, one-phase decay, read-out: t1/2 (min) (95% CI)): 10 min
Structure (SMILES): O=C1Nc2c(C(F)(F)F)cccc2[C@@]1(c1ccc(O)cc1)N1CCCC(F)(F)C1 [(R)-23, (R)-3-(3,3-difluoropiperidin-1-yl)-3-(4-hydroxyphenyl)-7-(trifluoromethyl)indolin-2-one]
- potencies against ERα− cancer cell lines (in words) (ERα− cancer cell lines): double-digit micromolar

- IC50 (MCF-7 cells; [4]): 33 nM
Structure (SMILES): O=C1Nc2c(C(F)(F)F)cccc2C1(c1ccc(OC(F)(F)F)cc1)c1ccc(O)c(F)c1 (centres unmarked) [Compound 5, 3-(3-fluoro-4-hydroxyphenyl)-3-(4-(trifluoromethoxy)phenyl)-7-(trifluoromethyl)indolin-2-one]

- IC50 (MCF-7 cells; [4]): 549 nM
Structure (SMILES): O=C1Nc2c(C(F)(F)F)cccc2C1(c1ccc(OC(F)(F)F)cc1)c1c(F)cc(O)cc1F (centres unmarked) [Compound 8, 3-(2,6-difluoro-4-hydroxyphenyl)-3-(4-(trifluoromethoxy)phenyl)-7-(trifluoromethyl)indolin-2-one]

- IC50 (MCF-7 cells; [4]): 49 nM
Structure (SMILES): O=C1Nc2c(C(F)(F)F)cccc2C1(c1ccc(OC(F)(F)F)cc1)c1ccc(O)c(O)c1 (centres unmarked) [Compound 10, 3-(3,4-dihydroxyphenyl)-3-(4-(trifluoromethoxy)phenyl)-7-(trifluoromethyl)indolin-2-one]

- IC50 (MCF-7 cells; [4]): > 1000 nM
Structure (SMILES): Cc1cc(C2(c3ccc(OC(F)(F)F)cc3)C(=O)Nc3c(C(F)(F)F)cccc32)ccc1O (centres unmarked) [Compound 11, 3-(4-hydroxy-3-methylphenyl)-3-(4-(trifluoromethoxy)phenyl)-7-(trifluoromethyl)indolin-2-one]

- IC50 (MCF-7 cells; [4]): > 1000 nM
Structure (SMILES): O=C1Nc2c(C(F)(F)F)cccc2C1(c1ccc(O)cc1)N1CCCCC1 (centres unmarked) [Compound 16, 3-(4-hydroxyphenyl)-3-(piperidin-1-yl)-7-(trifluoromethyl)indolin-2-one]

- IC50 (MCF-7 cells; [4]): 70 nM
Structure (SMILES): CC1CN(C2(c3ccc(O)cc3)C(=O)Nc3c(C(F)(F)F)cccc32)CCC1(F)F (centres unmarked) [Compound 17, 3-(4,4-difluoro-3-methylpiperidin-1-yl)-3-(4-hydroxyphenyl)-7-(trifluoromethyl)indolin-2-one]

- IC50 (MCF-7 cells; [4]): > 1000 nM
Structure (SMILES): O=C1Nc2c(C(F)(F)F)cccc2C1(c1ccc(O)cc1)N1CCOCC1 (centres unmarked) [Compound 18, 3-(4-hydroxyphenyl)-3-morpholino-7-(trifluoromethyl)indolin-2-one]

- IC50 (MCF-7 cells; [4]): > 1000 nM
Structure (SMILES): O=C1Nc2c(C(F)(F)F)cccc2C1(c1ccc(O)cc1)N1CCCCCC1 (centres unmarked) [Compound 19, 3-(azepan-1-yl)-3-(4-hydroxyphenyl)-7-(trifluoromethyl)indolin-2-one]

- IC50 (MCF-7 cells; [2]): > 1000 nM
- IC50 (MCF-7 cells; [3]): > 1000 nM
Structure (SMILES): O=C1Nc2c(C(F)(F)F)cccc2C1(c1ccc(O)cc1)N1CC(F)(F)C(F)(F)C1 (centres unmarked) [drawing 37]
